{"source": "patent US20150143553A1", "about": "“Methods And Compositions Comprising A Drosophila Model Of Amyotrophic Lateral Sclerosis” (priority 2013, published 2015)", "key": {"[1]": {"test_system": "Drosophila larvae expressing D169G TDP-43 in motor neurons", "assay": "Drug screen: rescue of lethality caused by D169G TDP-43 expression in motor neurons (D42 Gal4)", "assay_type": "in vivo", "conditions": "transgene D169G; 30 μM in fly food"}, "[2]": {"test_system": "Drosophila larvae expressing G298S TDP-43 in motor neurons", "assay": "Drug screen: rescue of lethality caused by G298S TDP-43 expression in motor neurons (D42 Gal4)", "assay_type": "in vivo", "conditions": "transgene G298S; 30 μM in fly food", "from_the_text": "[…] Larvae expressing TDP-43 (wild type or mutant, as shown) are raised on drug containing food.\n[…] Larvae expressing TDP-43 (wt or mutant) were raised on drug containing food.\n(§1) Using a Drosophila model of ALS based on TDP-43 that recapitulates several aspects of the disease pathophysiology (33, 35), a drug screen aimed at identifying FDA approved compounds with neuroprotective potential in vivo were designed (FIG. 37A). […] This phenotype was used to screen for drug candidates with therapeutic potential as determined by their ability to rescue pupal lethality and produce viable adults with extended wings (FIG. 37A).\nLarvae expressing TDP-43 in motor neurons (D42>TDP-43) were raised on fly food containing different amounts of drug (1, 10 and 25 μM, see Materials and Methods for details) or Dimethyl Sulfoxide (DMSO) as vehicle control (FIG. 37B, C).\nUAS TDP-43 males were crossed with D42-Gal4 female virgins on fly food containing either DMSO or pioglitazone. For DMSO controls, the same volume of DMSO as the corresponding drug concentration was added. Bromophenol blue was added to a final concentration of approximately 0.02% to ensure homogeneity. Crosses were made on drug food with 3 female virgins and 2 males in each vial, and were maintained at 25° C. unless noted. The parents were discarded after 5-7 days then the vials were screened for adult progeny with straight wings from day 14 to day 25. All adults were screened for TDP-43 expression by visualizing the YFP tag. Total number of pupae was counted on day 25. Percent survival was calculated using the formula (total number of straight-winged adults/total number of pupae)×100. All experiments were performed in triplicate."}, "[3]": {"test_system": "Drosophila larvae expressing N345K TDP-43 in motor neurons", "assay": "Drug screen: rescue of lethality caused by N345K TDP-43 expression in motor neurons (D42 Gal4)", "assay_type": "in vivo", "conditions": "transgene N345K; 50 μM in fly food", "protocol": "A drug screen aimed at rescuing the adult lethality caused by wild-type or mutant TDP-43 (D169G, G298S, A315T and N345K) overexpression in motor neurons has been performed (FIG. 11). 1200 FDA approved drugs from the Prestwick collection were fed to flies expressing TDP-43 at an initial concentration of 50 μM (as previously described in Chang et al., 2008). This screening strategy has several advantages including: (1) it is performed in vivo, (2) it is based on a robust phenotype (100% adult lethality), (3) it can lead to rapid identification of drugs that are already approved for use in humans and (4) it can inform the future development of small molecules with enhanced neuroprotective capabilities.\n(§2) FDA approved drugs from the Prestwick collection (200 mM in DMSO) are mixed with yeast-cornmeal based food and a bromophenol blue (as a mixing indicator) at a final concentration of 50 μM. Larvae expressing TDP-43 (wild type or mutant, as shown) are raised on drug containing food. In the absence of drugs, TDP-43 expression is lethal at the pupal/pharate stage. Drugs that rescued TDP-43 Induced Lethality (anywhere from 1-12 adults) were considered as candidates for future studies.\nas §2, with “DMSO) were” for “DMSO) are”, “TDP-43 (wt” for “TDP-43 (wild type”, “or mutant) were” for “or mutant, as shown) are”, “expression was” for “expression is”, “that rescue” for “that rescued”, “TDP-43 induced lethality” for “TDP-43 Induced Lethality”\nUsing a Drosophila model of ALS based on TDP-43 that recapitulates several aspects of the disease pathophysiology (33, 35), a drug screen aimed at identifying FDA approved compounds with neuroprotective potential in vivo were designed (FIG. 37A). […] This phenotype was used to screen for drug candidates with therapeutic potential as determined by their ability to rescue pupal lethality and produce viable adults with extended wings (FIG. 37A). […]"}, "[4]": {"test_system": "Drosophila larvae expressing A315T TDP-43 in motor neurons", "assay": "Drug screen: rescue of lethality caused by A315T TDP-43 expression in motor neurons (D42 Gal4)", "assay_type": "in vivo", "conditions": "transgene A315T; 50 μM in fly food", "protocol": "(§3) 1200 FDA approved drugs from the Prestwick collection were fed to flies expressing TDP-43 at an initial concentration of 50 μM (as previously described in Chang et al., 2008).\n(§4) FDA approved drugs from the Prestwick collection (200 mM in DMSO) are mixed with yeast-cornmeal based food and a bromophenol blue (as a mixing indicator) at a final concentration of 50 μM. Larvae expressing TDP-43 (wild type or mutant, as shown) are raised on drug containing food.\n(§5) FDA approved drugs from the Prestwick collection (200 mM in DMSO) were mixed with yeast-cornmeal based food and a bromophenol blue (as a mixing indicator) at a final concentration of 50 μM. Larvae expressing TDP-43 (wt or mutant) were raised on drug containing food.\nas §1"}, "[5]": {"test_system": "Drosophila larvae expressing wild-type TDP-43 in motor neurons", "assay": "Drug screen: rescue of lethality caused by wild-type TDP-43 expression in motor neurons (D42 Gal4)", "assay_type": "in vivo", "conditions": "for Preliminary rescue result: adults with normal wings: transgene WT2"}, "[6]": {"test_system": "Drosophila larvae expressing D169G TDP-43 in motor neurons", "assay": "Drug screen: rescue of lethality caused by D169G TDP-43 expression in motor neurons (D42 Gal4)", "assay_type": "in vivo", "conditions": "transgene D169G; 50 μM in fly food", "protocol": "as §3, §4, §5, §1"}, "cytochrome P450": {"test_system": "cytochrome P450", "conditions": "cited from earlier work"}}, "note": "Structures can show the parent of a compound that is named as a salt.", "data": [{"compound": "CC(=O)N[C@@H](CS)C(=O)O", "note": "[Acetylcysteine]", "values": [{"measurement": "Preliminary rescue result: adults with normal wings", "setting": "[1]", "result": 1, "unit": "Adults"}, {"measurement": "Preliminary rescue result: adults with normal wings", "setting": "[2]", "result": 1, "unit": "Adults"}]}, {"compound": "CN1C(=O)CCS(=O)(=O)C1c1ccc(Cl)cc1", "note": "(stereo not shown) [Chlormezanone]", "values": [{"measurement": "Preliminary rescue result: adults with normal wings", "setting": "[3]", "result": 1, "unit": "Adult Normal Wings Adults"}]}, {"compound": "CN1CCCN(C(c2ccccc2)c2ccc(Cl)cc2)CC1", "note": "(stereo not shown) [Homochlorcyclizine]", "values": [{"measurement": "Preliminary rescue result: adults with normal wings", "setting": "[4]", "result": 1, "unit": "Adult Normal Wings Adults"}, {"measurement": "Preliminary rescue result: adults with normal wings", "setting": "[5]; 50 μM in fly food", "result": "3 Adults Normal Wings,"}]}, {"compound": "CC[C@@H](C(N)=O)N1CCCC1=O", "note": "[Levetiracetam]", "values": [{"measurement": "Preliminary rescue result: adults with normal wings", "setting": "[4]", "result": 3, "unit": "Adult Normal Wings Adults"}]}, {"compound": "Cc1cccc(CN2CCN(C(c3ccccc3)c3ccc(Cl)cc3)CC2)c1", "note": "(stereo not shown) [Meclozine Dihcl]", "values": [{"measurement": "Preliminary rescue result: adults with normal wings", "setting": "[6]", "result": 6, "unit": "Adults Normal Wings"}]}, {"compound": "CN(C)c1ccc(O)c2c1C[C@H]1C[C@H]3[C@H](N(C)C)C(O)=C(C(N)=O)C(=O)[C@@]3(O)C(O)=C1C2=O", "note": "[Minocycline]", "values": [{"measurement": "Preliminary rescue result: adults with normal wings", "setting": "[3]", "result": 1, "unit": "Adult Normal Wings Adults"}]}, {"compound": "CCCC(C)C1(CC)C(=O)NC(=O)NC1=O", "note": "(stereo not shown) [Pentobarbital]", "values": [{"measurement": "Preliminary rescue result: adults with normal wings", "setting": "[4]", "result": 3, "unit": "Adult Normal Wings Adults"}]}, {"compound": "C1CCC(C(CC2CCCCN2)C2CCCCC2)CC1", "note": "(stereo not shown) [Perhexiline Maleate]", "values": [{"measurement": "Preliminary rescue result: adults with normal wings", "setting": "[3]", "result": 12, "unit": "Adults"}]}, {"compound": "CC(C)NC[C@@H](O)COc1ccc(CC(N)=O)cc1", "note": "[R-(+)-Atenolol]", "values": [{"measurement": "Preliminary rescue result: adults with normal wings", "setting": "[1]", "result": 1, "unit": "Adults"}, {"measurement": "Preliminary rescue result: adults with normal wings", "setting": "[5]; 30 μM in fly food", "result": 2, "unit": "Adults"}]}, {"compound": "OCc1cc(C(O)CNCCCCCCOCCCCc2ccccc2)ccc1O", "note": "(stereo not shown) [Salmeterol]", "values": [{"measurement": "Preliminary rescue result: adults with normal wings", "setting": "[1]", "result": "1 Adult Normal Wings × 2 Adults"}, {"measurement": "Preliminary rescue result: adults with normal wings", "setting": "[5]; 30 μM in fly food", "result": "1 Adult Normal Wings × 2 Adults"}]}, {"compound": "C[C@]12Cc3c[nH]nc3C[C@@H]1CC[C@@H]1[C@@H]2CC[C@@]2(C)[C@H]1CC[C@]2(C)O", "note": "[Stanozolol]", "values": [{"measurement": "Preliminary rescue result: adults with normal wings", "setting": "[6]", "result": 3, "unit": "Adult Normal Wings Adults"}]}, {"compound": "CCCCNc1ccc(C(=O)OCCN(C)C)cc1", "note": "[Tetracaine Hydrochloride]", "values": [{"measurement": "Preliminary rescue result: adults with normal wings", "setting": "[4]", "result": 2, "unit": "Adult Normal Wings Adults"}]}, {"compound": "Clc1ccc(C(Cn2ccnc2)OCc2ccsc2Cl)c(Cl)c1", "note": "(stereo not shown) [Tioconazole]", "values": [{"measurement": "Preliminary rescue result: adults with normal wings", "setting": "[4]", "result": 2, "unit": "Adults Normal Wings"}]}, {"compound": "Cc1c(C)c2c(c(C)c1O)CCC(C)(COc1ccc(CC3SC(=O)NC3=O)cc1)O2", "note": "(stereo not shown) [Troglitazone]", "values": [{"measurement": "activity in high-throughput screen for modulators of cytochrome P450", "setting": "cytochrome P450", "result": "active"}, {"measurement": "Preliminary rescue result: adults with normal wings", "setting": "[5]; 50 μM in fly food", "result": 2, "unit": "Adults Normal Wings"}, {"measurement": "Rescue Effect", "setting": "[5]; transgene wt, primary screening (50 μM), out of 15-20 pupae", "result": 2, "unit": "adults"}]}, {"compound": "Clc1ccc(Nc2nnc(Cc3ccncc3)c3ccccc23)cc1", "note": "[Vatalanib]", "values": [{"measurement": "Preliminary rescue result: adults with normal wings", "setting": "[6]", "result": 1, "unit": "Adult Normal Wings Adults"}]}, {"compound": "Tyloxapol", "values": [{"measurement": "Preliminary rescue result: adults with normal wings", "setting": "[1]", "result": 1, "unit": "Adult Normal Wings Adults"}]}]}
